Series [1] relates to MDA-MB-231 cells. Description: Growth assay of MDA-MB-231 cells with ODC inhibitor (DFMO) and 1 μM spermidine. To be noted: alone, in the presence of 1 μM SPD.
Method: The estrogen insensitive human breast carcinoma MDA-MB-231 cell line as the primary cell line in the screen. […] In order to optimize the screen for polyamine transport inhibition, 1.0 μM spermidine was added to media to reverse the effects of ODC inhibitors. The assay was also performed over seven days because this allows for the greatest dynamic range in cell growth due to the mechanism of ODC inhibitors. Cells need to divide several times before the intracellular level of polyamines begin to decrease to growth inhibitory levels.
Compounds were tested for their ability to inhibit cell growth in the presence of 1 μM spermidine and 230 μM ODC inhibitor for the MDA-MB-231 cells or 1 mM ODC inhibitor for the PC3 cells.
In our six day growth assays, 1202 was tested at increasing concentrations with the optimal concentration of DFMO.
Series [2] concerns MDA cells. Briefly: Long term (three week) growth of MDA cells with DFMO, 1202 or both. The series is classed as cell-based, human. The following applies: DFMO 500 μM or 1202 60 μM alone, three weeks.
Series [3] deals with polyamine transport system of MDA cells. Briefly: SPD transport inhibition and recovery after washing in MDA cells. The following applies: 3 day incubation. The series is classed as cell-based, human.
Series [4] has as its system MDA cells. Briefly: Intracellular polyamine levels in MDA cells after long term treatment. It is filed as cell-based, human. To be noted: DFMO alone, one and three weeks. From the text:
We examined the intracellular polyamine levels in MDA cells after 6 and 20 days of growth in the presence of polyamine synthesis inhibitor or transport inhibitor, or both.

The test system of series [5] is MDA breast carcinoma cells. Description: Rescue from DFMO-induced growth inhibition of MDA cells without added polyamines, six day growth assay. It is filed as cell-based, human. To be noted: Homo sapiens, Breast carcinoma cell, 144 h; 230 μM, no additional polyamines, six day growth assay; read-out: cell number, % of control. Here is the method:
An additional series of spermine amides were evaluated to extend the structure-activity relationship around this polyamine transport target.
Growth assays were done over a six day period in order to allow for polyamine depletion within cells. When synthesis of polyamines is inhibited, cells compensate by increasing transport of extracellular polyamines into the cell. Over the time course of the assay, polyamines in the culture media may be depleted resulting in growth inhibition.

The subject of series [6] is polyamine transport system of MDA cells. Description: Transport Km and Vmax with 3H-SPD after long term treatment of MDA cells. It is filed as cell-based, human. The following applies: DFMO in the presence of SPD. From the text: We wished to determine the effects of long term treatment with DFMO, 1202, or both, on polyamine transport characteristics.
The subject of series [7] is mutant L1210 leukemia cells deficient in polyamine uptake. To be noted: cited from earlier work.
Series [8] deals with wild-type L1210 cancer cells. To be noted: cited from earlier work.
A short description of series [9]: Solubility in water. It is filed as physicochemical. The following applies: pH 7.0.
The mark [10] stands for this setting: mice inoculated with mutant L1210 cells.

SMILES strings stand for the structures.

In the case of `NCCC[C@](N)(C(=O)O)C(F)F` [DFMO, α-difluoromethylornithine], the “effect on growth of single agent” value in [1] is listed as “minimal”. In addition, the “growth rate with single compound” value in series [2] was “little difference in growth rate”. The “up-regulation of SPD transport” value in series [3] stood at 3 fold. Besides, the “decrease in PUT levels” value in series [4] was 69–86%. In series [5], the activity at 230 µM was found to be 35%. In addition, the “change in Vmax” value in series [6] was “no change”. The survival in [7] (PAT-deficient L1210 cells, DFMO) is given as more than 60 days. Besides, in [7] (setting [10]), the “increase in median survival time” value was 87% and the mice cured is listed as 13 of 40. Further, in series [8] (mice inoculated with the parental cell line), the “increase in median survival time” value is 22%. Besides, the time to death in series [8] (wild-type L1210, treated with DFMO) is 12 days.

A word on the solubility: it is how much of the substance goes into solution per volume. A high value points to a readily soluble substance. In [9], `NCCCCC(N)C(=O)NCCCNCCCCNCCCN` [Compound 1202, N^1-Spermine-L-lysinyl amide] registered a solubility not below 100 mM.

The values are drawn from US7208528B1, “Polyamine analogues as therapeutic and diagnostic agents” (MediQuest Therapeutics, Inc., priority 1997, dated 2007).
